According to US20040180958A1, “Method of treatment” (priority 2002, published 2004):

Columns and labels:
[1] = tested on: male spontaneously hypertensive rat (SHR); assay: Micturition frequency and bladder pressure by telemetry in the male spontaneously hypertensive rat (SHR); type: in vivo; settings: 60 mg/kg s/c
Description: Effect of an Alpha-2-delta Ligand on Micturition Frequency and Bladder Pressure in the Male Spontaneously Hypertensive Rat (SHR)
Eight (8) male spontaneously hypertensive rats were prepared surgically with Data Sciences International (DSI) telemetry transponders (TL11M2-C50-PXT). Bladder pressure was continuously monitored with the aid of a pressure catheter placed via the dome of the bladder.
Bladder parameters (bladder pressure, voiding pressure and the number of voids) were recorded in response to placebo or treatment with 60 mg/kg Gabapentin administered subcutaneously (s/c).

[2] = tested on: micturition reflex of anaesthetised rats; assay: Continuous cystometry: effects of an alpha-2-delta ligand on the micturition reflex of anaesthetised rats; type: in vivo, rat
Description: Investigation into the Effects of an Alpha-2-delta Ligand on the Micturition Reflex of Anaesthetised Rats
Four caesarean derived (CD) rats weighing approximately 225 g were anaesthetised using urethane and continuous cystometry performed.
The animals were anaesthetised using urethane (1.2 g/kg, i.p.). Depth of anaesthesia was assessed by the stability of blood pressure and heart rate, and by an absence of hind limb withdrawal in response to paw pinch. Supplementary doses of urethane ([…], i.v.) were given where necessary.
The trachea was intubated to maintain a patent airway, an external jugular vein was cannulated for drug administration, and a common carotid artery was cannulated with a heparinised cannula (20 units/ml heparin in 0.9% w/v saline) for the measurement of arterial blood pressure.
Blood pressure was measured using a pressure transducer and the heart rate (HR) derived electronically on-line from the blood pressure using PoneMah (Linton Pty Ltd UK). Body temperature was monitored with a rectal temperature probe and maintained between 36-38° C. using a homeothermic blanket system (Harvard, UK). Animals were allowed to breathe air spontaneously throughout the duration of the experiment.
The urinary bladder was exposed by a midline abdominal incision. A cannula (c. 0.52 mm internal and 1.2 mm external diameter) was inserted into the bladder dome as a means of infusing the bladder while simultaneously recording intravesical bladder pressure. The bladder was infused with physiological saline (0.9%) at the rate of 0.046 ml/min, to simulate the maximal hourly diuresis rate of the rat (Klevmark B [1974]—Motility of the urinary bladder in cats during filling at physiological rates. I. Intravesical pressure patterns studied by a new method of cystometry. Acta Physiol Scand 90(3): 565-77).
Following the surgical procedure the animals were allowed to stabilise for c. 30 min. After the stabilisation period, cystometry was performed and bladder function (interval between micturition) in response to Gabapentin-HCl (0.3, 1, 3 and 10 mg/kg administered intravenously) was monitored.
Differences between treatment groups were examined using ANOVA.
Gabapentin-HCl (Tocris, UK) was dissolved in saline.

For `CCC[C@@H](C)C[C@H](N)CC(=O)O.Cl`, the melting point was 142.5 to 142.7 °C.

In the case of `NCC1(CC(=O)O)CCCCC1` [gabapentin, 1-(aminomethyl)-cyclohexylacetic acid], the bladder capacity ([1]; FIG. 2) was “increased bladder capacity”, the micturition interval ([1]; P<0.05, FIG. 2) was “significantly decreased” and the “average bladder pressure during the filling stages of the micturition cycle” value ([1]; P<0.05 relative to control periods, FIG. 3) was “significantly decreased”. For the same compound, the micturition interval ([2]; 10 mg/kg intravenously, control 3.1±0.29 min, P<0.05) was 9.89 ± 2.72 min, the “adverse effects on micturition efficiency, urine retention or bladder contraction upon voiding” value ([2]; 10 mg/kg, anaesthetised rats) was “did not have any adverse effects” and the bladder capacity improved ([2]; anaesthetised rats, intravenous, as a consequence of the longer micturition interval) was 200%. For the same compound, the “interval between voiding events” value ([2]; urethane-anaesthetised CD rats, 0.3, 1, 3 and 10 mg/kg intravenously, relative to control periods) was “significantly extended the interval between voiding events in a dose dependent manner”.

Work on `CCCC[C@@H](C)C[C@H](N)CC(=O)O.Cl` yielded a melting point of 142.5 to 143.3 °C.
